Peptide text beside a SMILES is read from it.
Test system: RLMVEC
Assay: KYC thiylation of endothelial cell proteins in RLMVEC cultures
Assay type: cell-based, rat
Excerpt: FIG. 29. Effects of Oxidative Stress on KYC Thiylation of RLMVEC Proteins. (A) Streptavidin affinity blot of KYC thiylated proteins from cell lysates prepared from RLMVEC cultures treated with B-KYC (baseline), B-KYC+MPO+H2O2 (MPO-dependent), and B-KYC+H2O2 (H2O2-dependent). (B) Immunoblot for Nrf2 in RLMVEC cultures treated as described in A. (C) Immunoblot for Keap1 in RLMVEC cultures treated as described in A. (D) Immunoblot for HMGB1 in RLMVEC cultures treated as described in A.(E) Immunoblot for β-Actin in RLMVEC cultures treated as described in A.(F) Bar chart showing relative levels of KYC thiylation, Nrf2, Keap1, and HMGB1 as a function of β-Actin (n=2, *=p<0.05, statistical analysis was preformed by ANOVA with appropriate post hoc tests).
FIG. 31. MPO Oxidation of KYC Increases KYC Thiylation of Extracellular HMGB1. […] This conclusion is based on the relative levels of KYC thiylated HMGB1 in panel A vs. KYC thiylated HMGB1 as a function of HMGB1 protein in conditioned media vs. RLMVEC cell lysates.
Rat lung microvascular endothelial cells (RLMVEC) from neonatal Sprague-Dawley rats (RN-6011) and rat endothelial growth medium (EGM, M1266SF) were from Cell Biologics (Chicago, Ill.). Amicon®Ultra-4 centrifugal concentrators with 3K cut-off (UFC800324) were from Merck Millipore Ltd (Carrigtwohill, Ireland). PierceTM Streptavidin (#88816), Protein G (#88848), Protein A Magnetic Beads (#88845), PierceTM ECL Western Blotting Substrate (#32106), and SuperSignalTM West Femto Maximum Sensitivity Substrate (#34095) were from Thermo Fisher Scientific (Waltham, MA). Rabbit antibodies for myeloperoxidase heavy chain (MPO, sc-33596) and TLR4 (sc-10741) were from Santa Cruz Biotechnology (Dallas, Texas). Rabbit antibody for Cl-Tyr (HP5002) was from Hycult Biotech (Plymouth Meeting, PA). The chicken antibody for HMGB1 (326052233) was from SHINO-TEST Corporation (Kanagawa, Japan). Rabbit antibody for RAGE (GTX23611) was from GeneTex (Irvine, CA). Mouse antibodies for PECAM-1/CD31 (ab24590), for 8-OH-dG (ab48508), and for rat endothelial cell antigen-1 (RECA-1, ab9774) were from Abcam (Cambridge, MA). Rabbit antibody for Cox1 (sc-7950) and Cox2 (sc-7951) were from Santa Cruz Biotechnology. Mouse (ab190377) and rabbit (ab77302b) antibodies for HMGB1, and streptavidin-HRP (ab7403) were from Abcam (Cambridge, Mass.). Rabbit antibody for acetylated-HMGB1 (OASG03545) was from Aviva System Biology (San Diego, Calif.). Rabbit antibodies for Nrf2 (sc-722) and TLR4 (sc-30002) were from Santa Cruz Biotechnology (Dallas, Tex.). Rabbit antibody against Keap1 (ABS97) and mouse antibody for β-actin (A2228) were from Millipore-Sigma (St. Louis, Mo.). Rabbit antibody for cysteine sulfonyl (ADI-OSA-820) was from Enzo Life Sciences (Farmingdale, N.Y.). Mouse antibody for glutathionylated proteins (D8) and all other chemicals were from Sigma-Aldrich (St. Louis, Mo.). All antibodies were certified either by the manufacturer or were used previously and certified by the authors, as was the case for the anti-HMGB1 antibody.
Effects of Oxidative Stress on KYC Thiylation on Endothelial Cell Proteins in RLMVEC Cultures: To determine the effects of oxidative stress on KYC thiylation, RLMVEC cultures were treated with B-KYC to follow KYC thiylation with streptavidin-affinity blotting as outlined in Methods. Three different levels of oxidative stress were used to determine the effects of oxidative stress on KYC thiylation of endothelial cell proteins: media alone (baseline); media containing MPO+H2O2 (MPO-dependent); and media containing H2O2 alone (H2O2-dependent) (FIG. 29A). KYC thiylation of RLMVEC proteins at baseline was low (FIG. 29A, first two lanes).

[1] = RLMVEC cultures, baseline vs MPO-dependent vs H2O2-dependent

In the case of CC(=O)N[C@@H](CCCCN)C(=O)N[C@@H](Cc1ccc(O)cc1)C(=O)N[C@@H](CS)C(N)=O [KYC, N-acetyl lysyltyrosylcysteine amide] (Ac-Lys-Tyr-Cys-NH2), the “HMGB1 expression relative to β-actin” value [1] is reported as “increased in RLMVEC cultures subjected to H2O2-dependent KYC thiylation”, the “Keap1 expression relative to β-actin” value [1] is reported as “followed a pattern similar to Nrf2” and the “Nrf2 expression relative to β-actin” value [1] is reported as “increased in RLMVEC cultures subjected to MPO-dependent KYC thiylation”. The “KYC thiylation of HMGB1 released from RLMVEC cultures” value (conditioned media, no KYC vs KYC vs MPO+H2O2+KYC) was “greater in RLMVEC cultures incubated with MPO+H2O2+KYC”.

— patent US20220409692A1, “Systems Chemico-Pharmacology Drugs and Methods of Use” (The Medical College of Wisconsin, priority 2019, published 2022)
